The record followed here is ChEMBL document CHEMBL4334512, “Rationally Designed, Conformationally Constrained Inverse Agonists of RORγt-Identification of a Potent, Selective Series with Biologic-Like in Vivo Efficacy” (J Med Chem, 2019).

Series [1] deals with T1, Oxysterols receptor LXR-beta (Homo sapiens, UniProt P55055).
T1 sequence (P55055 whole entry): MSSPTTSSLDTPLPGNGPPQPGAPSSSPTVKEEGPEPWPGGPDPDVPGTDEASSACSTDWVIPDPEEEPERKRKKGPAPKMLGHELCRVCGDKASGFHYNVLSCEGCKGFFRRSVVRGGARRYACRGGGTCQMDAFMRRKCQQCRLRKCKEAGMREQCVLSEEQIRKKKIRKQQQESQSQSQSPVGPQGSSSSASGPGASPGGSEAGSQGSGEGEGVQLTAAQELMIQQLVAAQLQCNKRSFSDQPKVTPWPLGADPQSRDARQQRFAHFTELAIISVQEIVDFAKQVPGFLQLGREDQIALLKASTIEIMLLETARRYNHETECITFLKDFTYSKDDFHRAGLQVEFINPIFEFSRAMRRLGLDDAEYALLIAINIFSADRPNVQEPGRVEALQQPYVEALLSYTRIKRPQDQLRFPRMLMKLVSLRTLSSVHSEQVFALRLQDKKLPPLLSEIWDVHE
Nature of the series: Activity at LXRbeta (unknown origin).

A short description of series [2]: Half life in human liver microsomes. The series is classed as ADME, Microsome. (In general: Microsomes from liver hold many membrane-bound enzymes, among them those of drug oxidation.)
A short description of series [3]: Half life in rat liver microsomes. The series is classed as ADME, Microsome.
The target in series [4] is T2, Nuclear receptor subfamily 1 group I member 2 (Homo sapiens, UniProt O75469).
T2 sequence (O75469 whole entry): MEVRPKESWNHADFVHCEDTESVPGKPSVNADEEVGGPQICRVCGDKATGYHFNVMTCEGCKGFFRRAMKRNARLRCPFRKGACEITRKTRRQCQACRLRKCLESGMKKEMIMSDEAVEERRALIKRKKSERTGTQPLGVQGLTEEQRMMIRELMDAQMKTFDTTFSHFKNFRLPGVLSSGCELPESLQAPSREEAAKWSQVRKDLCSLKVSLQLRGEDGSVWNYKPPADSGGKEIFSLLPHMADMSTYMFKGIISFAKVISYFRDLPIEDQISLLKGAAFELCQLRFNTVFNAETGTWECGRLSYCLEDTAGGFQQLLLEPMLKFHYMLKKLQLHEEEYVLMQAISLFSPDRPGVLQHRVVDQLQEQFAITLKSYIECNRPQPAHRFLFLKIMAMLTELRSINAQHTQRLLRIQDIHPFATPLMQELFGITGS
As to the kind of experiment: Activity at PXR (unknown origin).

Series [5] concerns the target T3, Oxysterols receptor LXR-alpha (Homo sapiens, UniProt Q13133).
T3 sequence (Q13133 whole entry): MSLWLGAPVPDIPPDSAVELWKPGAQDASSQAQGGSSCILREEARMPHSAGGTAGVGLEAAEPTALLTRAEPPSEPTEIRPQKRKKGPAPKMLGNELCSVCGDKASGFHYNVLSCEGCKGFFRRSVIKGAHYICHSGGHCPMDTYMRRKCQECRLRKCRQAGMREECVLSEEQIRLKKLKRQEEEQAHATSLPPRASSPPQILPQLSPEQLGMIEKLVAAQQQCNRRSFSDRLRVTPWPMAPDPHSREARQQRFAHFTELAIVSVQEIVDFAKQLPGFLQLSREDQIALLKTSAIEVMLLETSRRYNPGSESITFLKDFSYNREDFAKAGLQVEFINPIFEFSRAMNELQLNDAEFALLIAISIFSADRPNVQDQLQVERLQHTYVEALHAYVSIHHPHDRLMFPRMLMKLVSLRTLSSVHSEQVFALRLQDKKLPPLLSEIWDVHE
Nature of the series: Activity at LXRalpha (unknown origin).

The nature of series [6]: Cmax in Balb/c mouse at 10 mg/kg, po. The series is classed as ADME, organism-based. The arrangement: dose 10 mg/kg, route oral. As to conditions: in vivo.
Series [7] in a line: Half life in mouse liver microsomes. In kind it is ADME, Microsome.
Series [8] addresses T4, Nuclear receptor ROR-alpha (Homo sapiens, UniProt P35398).
T4 sequence (P35398 whole entry): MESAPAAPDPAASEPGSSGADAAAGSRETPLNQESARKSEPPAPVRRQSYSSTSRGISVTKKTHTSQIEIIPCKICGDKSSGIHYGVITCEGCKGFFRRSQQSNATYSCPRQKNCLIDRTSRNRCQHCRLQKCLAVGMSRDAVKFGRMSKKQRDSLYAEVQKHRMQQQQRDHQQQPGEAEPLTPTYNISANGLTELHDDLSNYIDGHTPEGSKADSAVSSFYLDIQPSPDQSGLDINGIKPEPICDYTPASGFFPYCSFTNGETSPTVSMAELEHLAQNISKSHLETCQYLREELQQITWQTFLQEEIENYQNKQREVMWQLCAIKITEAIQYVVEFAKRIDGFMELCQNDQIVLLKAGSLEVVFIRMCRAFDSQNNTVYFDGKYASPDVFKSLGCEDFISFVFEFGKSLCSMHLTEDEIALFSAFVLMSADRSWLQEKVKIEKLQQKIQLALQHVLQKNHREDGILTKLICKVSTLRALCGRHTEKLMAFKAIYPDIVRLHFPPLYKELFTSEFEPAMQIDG
Nature of the series: Activity at RORalpha (unknown origin).

Series [9] in a line: Drug level in Balb/c mouse at 10 mg/kg, po after 24 hrs. In kind it is ADME, organism-based. As to conditions: in vivo, read-out: Drug uptake.
Series [10] deals with T5, Nuclear receptor ROR-beta (Homo sapiens, UniProt Q92753).
T5 sequence (Q92753 whole entry): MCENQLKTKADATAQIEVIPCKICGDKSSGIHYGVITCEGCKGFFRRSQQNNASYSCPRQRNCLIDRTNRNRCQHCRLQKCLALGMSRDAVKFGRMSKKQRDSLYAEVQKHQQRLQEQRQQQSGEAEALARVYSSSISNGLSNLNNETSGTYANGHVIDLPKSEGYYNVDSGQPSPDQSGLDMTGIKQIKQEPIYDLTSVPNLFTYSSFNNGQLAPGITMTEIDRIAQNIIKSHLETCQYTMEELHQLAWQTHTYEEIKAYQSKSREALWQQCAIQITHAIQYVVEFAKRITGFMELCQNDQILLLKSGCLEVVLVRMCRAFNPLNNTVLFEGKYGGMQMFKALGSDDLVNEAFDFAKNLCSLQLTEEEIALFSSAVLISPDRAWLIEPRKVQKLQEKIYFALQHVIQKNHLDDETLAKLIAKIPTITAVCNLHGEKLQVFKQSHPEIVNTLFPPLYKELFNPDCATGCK
As to the kind of experiment: Activity at RORbeta (unknown origin).

The nature of series [11]: Unbound fraction in human serum. In kind it is ADME, cell-free.

The IC50 is the concentration that gives 50% inhibition. Low readings indicate greater potency, high ones weaker potency. A word on the half-life: it is the time needed for the level to fall by half in the phase considered. Low readings indicate rapid decline, high ones slow decline. In general, Cmax refers to the peak of the concentration-time curve. Regarding `O=C(O)[C@H]1CC[C@H](C(=O)N2CC[C@@]3(S(=O)(=O)c4ccc(F)cc4)c4ccc(C(F)(C(F)(F)F)C(F)(F)F)cc4CC[C@@H]23)CC1`, the IC50 in series [1] was > 10 µM; in series [4], > 40 µM; in series [5], > 10 µM; in [8], > 10 µM; in series [10] it was > 10 µM. Moreover, the half-life in series [2], in series [3] and in series [7] was > 2 h throughout. This molecule also had a Cmax in series [6] of 8600 nM. Further, the concentration at 24 h in series [9] came to 1600 nM.

Take `O=C(O)[C@H]1CC[C@](O)(C(=O)N2CC[C@@]3(S(=O)(=O)c4ccc(F)cc4)c4ccc(C(F)(C(F)(F)F)C(F)(F)F)cc4CC[C@@H]23)CC1`: the IC50 in series [1] is > 10 µM; in [4] it was > 40 µM; in [5] it was > 10 µM; in series [8], > 10 µM; in series [10] it was > 10 µM. The half-life in series [2] is 1.65 h; in series [3], > 2 h; in series [7] it was > 2 h. In addition, the Cmax in series [6] turned out to be 2500 nM. Also, the concentration at 24 h in series [9] amounted to 260 nM.

The term fraction unbound denotes the share of the substance not bound to proteins or other matrix. Read a high fraction unbound as weak binding. Take `CN1C[C@H]2N(C(=O)[C@H]3CC[C@H](C(=O)O)CC3)CC[C@@]2(S(=O)(=O)c2ccc(F)cc2)c2ccc(C(F)(C(F)(F)F)C(F)(F)F)cc21`: the IC50 in series [1] was > 10 µM; in [4], > 40 µM; in series [5], > 10 µM; in series [8], > 10 µM; in [10], > 10 µM. The half-life in series [2], in [3] and in series [7] was > 2 h throughout. This molecule showed a fraction unbound in series [11] of 0.024. Further, the concentration in series [6] peaked (Cmax) at 10000 nM. For the same molecule, in series [9], the concentration at 24 h is 710 nM.

Turning to `CCCN1C[C@H]2N(C(=O)[C@H]3CC[C@H](C(=O)O)CC3)CC[C@@]2(S(=O)(=O)c2ccc(F)cc2)c2ccc(C(F)(C(F)(F)F)C(F)(F)F)cc21`, the IC50 in series [1] is > 10 µM; in [4] it was > 40 µM; in series [5], > 10 µM; in series [8], > 10 µM; in series [10] it was > 10 µM. For the same molecule, the half-life in series [2] was 1.53 h; in series [3] it was 1.77 h; in [7], > 2 h. In series [11], this molecule gave a fraction unbound of 0.002.

Turning to `O=C(O)[C@H]1CC[C@H](C(=O)N2CC[C@@]3(S(=O)(=O)c4ccccc4)c4ccc(C(F)(C(F)(F)F)C(F)(F)F)cc4CC[C@@H]23)CC1`, the IC50 in series [1] is > 10 µM; in series [4], > 40 µM; in [5] it was > 10 µM; in [8], > 10 µM; in [10] it was > 10 µM. Moreover, the half-life in [2], in [3] and in [7] was > 2 h in each case. In series [6], the Cmax is 6900 nM. For the same molecule, in [9], the concentration at 24 h came out at 740 nM.

For the molecule `O=C(O)[C@H]1CC[C@H](C(=O)N2CC[C@@]3(S(=O)(=O)c4ccc(F)cc4)c4ccc(C(F)(C(F)(F)F)C(F)(F)F)cc4OC[C@@H]23)CC1`, the IC50 is > 10 µM in series [1]; > 40 µM in [4]; > 10 µM in [5]; > 10 µM in series [8]; > 10 µM in series [10]. Besides, the half-life in series [2], in series [3] and in series [7] was > 2 h throughout. Also, in [11], the fraction unbound worked out at 0.003.

As for `CCN1C[C@H]2N(C(=O)[C@H]3CC[C@H](C(=O)O)CC3)CC[C@@]2(S(=O)(=O)c2ccc(F)cc2)c2ccc(C(F)(C(F)(F)F)C(F)(F)F)cc21`, the IC50 in [1] is > 10 µM; in series [4], > 40 µM; in series [5], > 10 µM; in [8], > 10 µM; in series [10], > 10 µM. Further, the half-life in series [2], in series [3] and in series [7] was > 2 h in each case. The same molecule came in with a fraction unbound in series [11] of 0.005. In [6], the Cmax was 13000 nM. For the same molecule, the concentration at 24 h in [9] was 3000 nM.

As to `O=C(O)[C@H]1CC[C@H](C(=O)N2CC[C@@]3(S(=O)(=O)c4ccc(F)cc4)c4ccc(C(F)(C(F)(F)F)C(F)(F)F)cc4NC[C@@H]23)CC1`, the IC50 in series [1] is > 10 µM; in series [4], > 40 µM; in series [5], > 10 µM; in series [8], > 10 µM; in series [10], > 10 µM. The half-life in series [2], in series [3] and in series [7] was > 2 h throughout. Further, the fraction unbound in [11] came out at 0.014.

For the molecule `O=C(O)C12CCC(C(=O)N3CC[C@@]4(S(=O)(=O)c5ccc(F)cc5)c5ccc(C(F)(C(F)(F)F)C(F)(F)F)cc5CC[C@@H]34)(CC1)CC2`, the IC50 is > 10 µM in series [1]; > 40 µM in [4]; > 10 µM in series [5]; > 10 µM in [8]; > 10 µM in [10]. Besides, the half-life in series [2], in series [3] and in series [7] was > 2 h throughout. The Cmax in series [6] stood at 9300 nM. The concentration at 24 h in series [9] was 1000 nM.
